Patent publication US10155764B2, “Therapeutic compounds and uses thereof” (GENENTECH, INC., priority 2014, dated 2018)

Each compound was assayed against PCAF719-832 bromodomain (Homo sapiens (Human), UniProt Q92831) (assay: PCAF AlphaLisa binding assay). Details: PCAF bromodomain 225 nM, biotinylated small molecule ligand 6 nM.
PCAF719-832 bromodomain, sequence (Q92831 719-832): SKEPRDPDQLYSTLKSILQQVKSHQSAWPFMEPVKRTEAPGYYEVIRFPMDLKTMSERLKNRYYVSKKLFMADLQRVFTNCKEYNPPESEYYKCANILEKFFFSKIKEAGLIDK
Procedure: PCAF bromodomain binding and inhibition of the compounds disclosed herein was assessed by monitoring the engagement of biotinylated small molecule ligand (known to bind to the PCAF bromodomain) with the target using the AlphaLisa technology (Perkin-Elmer).
`COc1ccc([C@@H]([C@H](C)Nc2nn(C)c(=O)c3ccccc23)N(C)C)cn1` (single isomer, unassigned) [Example 62] was tested, and the IC50 was 63 nM.
`Cn1nc(N[C@@H]2CCCC[C@@H]2N)c2ncccc2c1=O` (single isomer, unassigned) [Example 14A] showed an IC50 greater than 5000 nM.
Compound `C[C@H](Nc1nn(C)c(=O)c2ccccc12)[C@H](c1ccc(=O)[nH]c1)N(C)C` [Example 88, 4-(((1S,2S)-1-(dimethylamino)-1-(6-oxo-1,6-dihydropyridin-3-yl)propan-2-yl)amino)-2-methylphthalazin-1(2H)-one] has an IC50 of 80 nM.
Compound `C[C@@H](Nc1nn(C)c(=O)c2cccnc12)[C@@H](c1ccc(S(=O)(=O)c2ccccc2)cc1)N(C)C` (single isomer, unassigned) [Example 74B] has an IC50 of 2300 nM.
Compound `Cn1nc(NCCN2CCCC2)c2ccccc2c1=O` [Example 24, 2-methyl-4-((2-(pyrrolidin-1-yl)ethyl)amino)phthalazin-1(2H)-one] has an IC50 of 920 nM.
Compound `CC(C)Oc1ccc([C@@H]([C@H](C)Nc2nn(C)c(=O)c3ccccc23)N(C)C)cc1` (single isomer, unassigned) [Example 59] has an IC50 of 33 nM.
With `CN(CCNc1nn(C)c(=O)c2ccccc12)C1COC1` [Example 51, 2-methyl-4-((2-(methyl(oxetan-3-yl)amino)ethyl)amino)phthalazin-1(2H)-one] the IC50 was 800 nM.
In the case of `Cn1nc(N[C@@H]2CCCC[C@H]2N)c2ccccc2c1=O` (racemic) [Example 35, 4-(((1R,2R)-2-aminocyclohexyl)amino)-2-methylphthalazin-1(2H)-one], the IC50 is reported as 12000 nM.
With `CN(C)C(CNc1nn(C)c(=O)c2cccnc12)c1ccccc1` (centres unmarked) [Example 1, 8-((2-(dimethylamino)-2-phenylethyl)amino)-6-methylpyrido[2,3-d]pyridazin-5(6H)-one] the IC50 was 86 nM.
`C/C=C/Cn1nc(NC(C)CN(C)C)c2ccccc2c1=O` (racemic) [Example 31, (E)-2-(but-2-en-1-yl)-4-((1-(dimethylamino)propan-2-yl)amino)phthalazin-1(2H)-one] gave an IC50 of 8100 nM.
`CN(C)[C@@H](CNc1nn(C)c(=O)c2cccnc12)c1ccccc1` [Example 1B, (R)-8-((2-(dimethylamino)-2-phenylethyl)amino)-6-methylpyrido[2,3-d]pyridazin-5(6H)-one] gave an IC50 of 2200 nM.
`CN(C)CCNc1nn(C)c(=O)c2c(F)cccc12` [Example 6, 4-((2-(dimethylamino)ethyl)amino)-8-fluoro-2-methylphthalazin-1(2H)-one] showed an IC50 of 87 nM.
Work on `CN(C)CCOc1nn(C)c(=O)c2ccccc12` [Example 48, 4-(2-(dimethylamino)ethoxy)-2-methylphthalazin-1(2H)-one] yielded an IC50 of 450 nM.
With `COc1ccc(C(CNc2nn(C)c(=O)c3ccccc23)N(C)C)cc1` (racemic) [Example 21, 4-((2-(dimethylamino)-2-(4-methoxyphenyl)ethyl)amino)-2-methylphthalazin-1(2H)-one] the IC50 was 64 nM.
`CC(CN(C)C)Nc1nn(C)c(=O)c2ccccc12` (racemic) [Example 28, 4-((1-(dimethylamino)propan-2-yl)amino)-2-methylphthalazin-1(2H)-one] gave an IC50 of 66 nM.
For `CC(Nc1nn(C)c(=O)c2cccnc12)C(c1ccc(S(=O)(=O)c2ccccc2)cc1)N(C)C` (single isomer, unassigned) [Example 74, 8-((1-(dimethylamino)-1-(4-(phenylsulfonyl)phenyl)propan-2-yl)amino)-6-methylpyrido[2,3-d]pyridazin-5(6H)-one], the IC50 was 40 nM.
Work on `CN(C)[C@H](CNc1nn(C)c(=O)c2cccnc12)c1ccccc1` [Example 1A, (S)-8-((2-(dimethylamino)-2-phenylethyl)amino)-6-methylpyrido[2,3-d]pyridazin-5(6H)-one] yielded an IC50 of 45 nM.
`CN1CCC(Nc2nn(C)c(=O)c3ccccc23)C1` (racemic) [Example 44, 2-methyl-4-((1-methylpyrrolidin-3-yl)amino)phthalazin-1(2H)-one] was tested, and the IC50 was 260 nM.
With `CN(C)[C@@H](CNc1nn(C)c(=O)c2ccccc12)c1ccccc1` (single isomer, unassigned) [Example 22B] the IC50 was 550 nM.
`C[C@H](CN(C)C)Nc1nn(C)c(=O)c2cccnc12` (single isomer, unassigned) [Example 8B] gave an IC50 greater than 5000 nM.
`CN(C)C(CNc1nn(C)c(=O)c2ccccc12)c1ccccc1F` (racemic) [Example 26, 4-((2-(dimethylamino)-2-(2-fluorophenyl)ethyl)amino)-2-methylphthalazin-1(2H)-one] was tested, and the IC50 was 110 nM.
`C[C@H](Nc1nn(C)c(=O)c2ccccc12)[C@H](c1ccccn1)N(C)C` (single isomer, unassigned) [Example 60] gave an IC50 of 21 nM.
Compound `CN1CCN(CCNc2nn(C)c(=O)c3ccccc23)CC1` [Example 42, 2-methyl-4-((2-(4-methylpiperazin-1-yl)ethyl)amino)phthalazin-1(2H)-one] has an IC50 of 9600 nM.
Work on `CN(C)[C@H]1CCCC[C@@H]1Nc1nn(C)c(=O)c2cccnc12` (single isomer, unassigned) [Example 11B] yielded an IC50 greater than 5000 nM.
`CC[C@H](CNc1nn(C)c(=O)c2ccccc12)N(C)C` (single isomer, unassigned) [Example 39B] gave an IC50 of 89 nM.
`CN1CC(Nc2nn(C)c(=O)c3cccnc23)C1` [Example 18, 6-methyl-8-((1-methylazetidin-3-yl)amino)pyridol[2,3-d]pyridazin-5(6H)-one] was tested, and the IC50 was 1500 nM.
In the case of `COCCN(C)CCNc1nn(C)c(=O)c2ccccc12` [Example 49, 4-((2-((2-methoxyethyl)(methyl)amino)ethyl)amino)-2-methylphthalazin-1(2H)-one], the IC50 is reported as 3500 nM.
For `C[C@H](Nc1nn(C)c(=O)c2cccnc12)[C@H](c1ccc(C(=O)O)cc1)N(C)C` [Example 81, 4-((1S,2S)-1-(dimethylamino)-2-((6-methyl-5-oxo-5,6-dihydropyrido[2,3-d]pyridazin-8-yl)amino)propyl)benzoic acid], the IC50 was 98 nM.
`Cc1cccc2c(N[C@@H](C)[C@H](c3ccccc3)N(C)C)nn(C)c(=O)c12` (single isomer, unassigned) [Example 69A] was tested, and the IC50 was greater than 5000 nM.
Work on `CN(C)[C@H]1c2ccccc2C[C@H]1Nc1nn(C)c(=O)c2ccccc12` [Example 47B, 4-(((1S,2R)-1-(dimethylamino)-2,3-dihydro-1H-inden-2-yl)amino)-2-methylphthalazin-1(2H)-one] yielded an IC50 greater than 5000 nM.
Compound `CCn1nc(N[C@H](C)CN(C)C)c2ccccc2c1=O` (single isomer, unassigned) [Example 17A] has an IC50 greater than 5000 nM.
Work on `COc1ccc2c(NCCN(C)C)nn(C)c(=O)c2c1` [Example 4, 4-((2-(dimethylamino)ethyl)amino)-7-methoxy-2-methylphthalazin-1(2H)-one] yielded an IC50 of 470 nM.
`CCN(CC)CCNc1nn(C)c(=O)c2ccccc12` [Example 23, 4-((2-(diethylamino)ethyl)amino)-2-methylphthalazin-1(2H)-one] gave an IC50 of 2400 nM.
Compound `CN(C)[C@H](CNc1nn(C)c(=O)c2ccccc12)c1ccccc1` (single isomer, unassigned) [Example 22A] has an IC50 of 47 nM.
`CC(CN(C)C)Nc1nn(C)c(=O)c2c1CCN(c1ccc(Cl)cc1)C2` (racemic) [Example 89, 6-(4-chlorophenyl)-1-((1-(dimethylamino)propan-2-yl)amino)-3-methyl-5,6,7,8-tetrahydropyrido[3,4-d]pyridazin-4(3H)-one] was tested, and the IC50 was 1200 nM.
